Results as given in PubChem BioAssay AID2060882 (Molecular Pharmacology Branch, DTP, NCI, 2025).

Test system: 898857-211-R-J1-PDC complex spheroids, growth % test/control
Test: Anticancer human tumor 898857-211-R-J1-PDC patient-derived melanoma cell line growth inhibition [RAS]
Conditions: for IC50: curve of first compound; for viability, T/C: stronger effect = lower value
From the text: RAS pathway inhibitors in Combinations in Complex Spheroids
A high-throughput screen of multi-cell type tumor spheroids was designed to identify active combinations of RAS pathway inhibitors and targeted small molecules. Complex spheroids include a stromal component modeled by human endothelial cells (HUVEC) and fibroblasts modeled by human mesenchymal stem cells (MSCs). The concentration ranges selected for each drug and investigational agent were based upon clinically achievable concentrations if the clinical Cmax of the agent was known.
Compounds. The drugs and investigational agents: abemaciclib (NSC768073), cobimetinib (NSC768068), divarasib (GDC6063, NSC841802), docetaxel (NSC628503), GDC-1971 (RLY-1971, NSC841576), gemcitabine (NSC613327), inavolisib (NSC800729), ipatasertib (NSC767898), KB-0742 (NSC834161), MRTX-1133 (NSC836407), osimertinib (NSC779217), RMC-4630 (NSC839698), RMC-6236 (NSC851965), RMC-6291 (NSC852671), Ro-3306 (NSC812927), sapanisertib (NSC764658), SN-38 (NSC673596), staurosporine (NSC755774), SY5609 (NSC837396), and tovorafenib (DAY101, NSC766906), were obtained from the National Cancer Institute (NCI) Developmental Therapeutics Program Chemical Repository. The FDA-approved anticancer drug set is available from the NCI Developmental Therapeutics Program. […] The stock solutions were prepared in dimethyl sulfoxide (DMSO, Sigma-Aldrich, St. Louis, MO, cat. D2650) at 800-fold the tested concentration and stored at -70 degrees C prior to their use. All drugs and investigational agents were tested over a range starting from a high concentration at or near the clinical Cmax and decreasing in half-log increments. If the clinical Cmax for an agent had not been determined, the highest concentration tested was 10 microM.
Cell Culture. All cells were maintained in an incubator at 37 degrees C and 5% CO2 with 95% humidity. The PDC lines were cultured according to standard operating procedures established by the NCI PDMR. All PDCs were thawed and cultured in Matrigel-coated flasks prepared with a working solution of 1X Ham's F-12 nutrient mix, without supplementation (Invitrogen, Waltham, MA, cat. 11765054), 100 U/mL penicillin-streptomycin (Invitrogen, cat. 15140122), and 2.5% Matrigel (Corning Inc., Corning, NY, cat. 354248) for the first three passages. The 362531-283-R-J2-PDC and 782815-120-R-J1-PDC lines were cultured in 6C/Colon 1B media, which includes advanced DMEM/F-12 (Thermo Fisher Scientific, cat. 12634028), 10 mM HEPES (Thermo Fisher Scientific, cat. 15630080), 1X GlutaMAX supplement (Thermo Fisher Scientific, cat. 35050061), 0.1 mg/mL primocin (InvivoGen, San Diego, CA, cat. ant-pm-2), 10% defined fetal bovine serum, heat inactivated (HyClone Laboratories Inc., Logan, UT, cat. SH30070.03HI), 50% L-WRN conditioned media (ATCC, cat. CRL-3276), 1.25 mM N-Acetyl-L-cysteine (Sigma-Aldrich, cat. A9165), 10 mM nicotinamide (Sigma-Aldrich, cat. N0636), 1X B-27 supplement (Thermo Fisher Scientific, cat. 17504044), 1X N-2 supplement (Thermo Fisher Scientific, cat. 17502048), 50 ng/mL human EGF (Thermo Fisher Scientific, cat. PHG0311), and 10 microM Y-27632 dihydrochloride (Tocris Bioscience, cat. 1254). The K12877-001-R-J1-PDC line was cultured in 6I media, which includes all 6C/Colon 1B media plus 10 ng/mL human FGF-10 (PeproTech, cat. 100-26), 1 ng/mL human FGF-2 (PeproTech, cat. 100-18B), 1 µM prostaglandin E2 (Tocris Bioscience, cat. 2296), […] hydrocortisone (Sigma-Aldrich, cat. H4001), and […] bovine insulin (Sigma-Aldrich, cat. I6634). The K86415-001-R-J1-PDC line was cultured in 6D media, which includes all 6C/Colon 1B media components minus the L-WRN conditioned media. The 485176-168-R4-J1-PDC was cultured in PANC media, which includes all 6C/Colon 1B media plus 100 ng/mL human FGF-10 (PeproTech, cat. 100-26), 500 nM SB-431542 (Selleckchem, cat. S1067), and 10 nM gastrin (Tocris Bioscience, cat. 3006). […]

[1] = second compound 0.0316 µM, first compound 0.00316 µM
[2] = second compound 0.0316 µM, first compound 0.01 µM
[3] = second compound 0.0316 µM, first compound 0.0316 µM
[4] = second compound 0.0316 µM, first compound 0.1 µM
[5] = second compound 0.0316 µM, first compound 0.316 µM
[6] = second compound 0.0316 µM, first compound 1 µM
[7] = second compound 0.1 µM, first compound 0.00316 µM
[8] = second compound 0.1 µM, first compound 0.01 µM
[9] = second compound 0.1 µM, first compound 0.0316 µM
[10] = second compound 0.1 µM, first compound 0.1 µM
[11] = second compound 0.1 µM, first compound 0.316 µM
[12] = second compound 0.1 µM, first compound 1 µM
[13] = second compound 0.316 µM, first compound 0.00316 µM
[14] = second compound 0.316 µM, first compound 0.01 µM
[15] = second compound 0.316 µM, first compound 0.0316 µM
[16] = second compound 0.316 µM, first compound 0.1 µM
[17] = second compound 0.316 µM, first compound 0.316 µM
[18] = second compound 0.316 µM, first compound 1 µM
[19] = second compound 1 µM, first compound 0.00316 µM
[20] = second compound 1 µM, first compound 0.01 µM
[21] = second compound 1 µM, first compound 0.0316 µM
[22] = second compound 1 µM, first compound 0.1 µM
[23] = second compound 1 µM, first compound 0.316 µM
[24] = second compound 1 µM, first compound 1 µM
[25] = second compound 3.16 µM, first compound 0.00316 µM
[26] = second compound 3.16 µM, first compound 0.01 µM
[27] = second compound 3.16 µM, first compound 0.0316 µM
[28] = second compound 3.16 µM, first compound 0.1 µM
[29] = second compound 3.16 µM, first compound 0.316 µM
[30] = second compound 3.16 µM, first compound 1 µM
[31] = second compound 10 µM, first compound 0.00316 µM
[32] = second compound 10 µM, first compound 0.01 µM
[33] = second compound 10 µM, first compound 0.0316 µM
[34] = second compound 10 µM, first compound 0.1 µM
[35] = second compound 10 µM, first compound 0.316 µM
[36] = second compound 10 µM, first compound 1 µM
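Note: spheroids exposed to compound for seven days before readout.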
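Throughout, for viability, T/C: 100% = DMSO vehicle control wells.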

With `C=CC(=O)Nc1cc(Nc2nccc(-c3cn(C)c4ccccc34)n2)c(OC)cc1N(C)CCN(C)C` + C#Cc1c(F)ccc2cc(O)cc(-c3ncc4c(N5CC6CCC(C5)N6)nc(OCC56CCCN5CC(F)C6)nc4c3F)c12 the IC50 (second compound 0.0316 µM) was > 1000 nM, the IC50 (second compound 0.1 µM) was > 1000 nM and the IC50 (second compound 0.316 µM) was > 1000 nM. The IC50 (second compound 1 µM) was > 1000 nM, the IC50 (second compound 3.16 µM) was 778 nM and the IC50 (second compound 10 µM) was 24 nM. The viability, T/C [1] was 103%, the viability, T/C [2] was 92.3% and the viability, T/C [3] was 103%. The viability, T/C [4] was 100%, the viability, T/C [5] was 85.4% and the viability, T/C [6] was 65.7%. The viability, T/C [7] was 108%, the viability, T/C [8] was 105% and the viability, T/C [9] was 107%. The viability, T/C [10] was 98.6%, the viability, T/C [11] was 94.7% and the viability, T/C [12] was 62.1%. It also gave a viability, T/C [13] of 113%, a viability, T/C [14] of 101% and a viability, T/C [15] of 111%. For the same compound, the viability, T/C [16] was 96.2%, the viability, T/C [17] was 85.8% and the viability, T/C [18] was 49.9%. The viability, T/C [19] was 109%, the viability, T/C [20] was 95.8% and the viability, T/C [21] was 109%. For the same compound, the viability, T/C [22] was 97.6%, the viability, T/C [23] was 93.6% and the viability, T/C [24] was 54.5%. It also gave a viability, T/C [25] of 109%, a viability, T/C [26] of 105% and a viability, T/C [27] of 102%. The viability, T/C [28] was 105%, the viability, T/C [29] was 87.6% and the viability, T/C [30] was 39%. It also gave a viability, T/C [31] of 65.7%, a viability, T/C [32] of 48.1% and a viability, T/C [33] of 45.1%. The viability, T/C [34] was 45.5%, the viability, T/C [35] was 19.9% and the viability, T/C [36] was 0.87%.

`O=C(c1ccc(F)c(F)c1Nc1ccc(I)cc1F)N1CC(O)([C@@H]2CCCCN2)C1` + C#Cc1c(F)ccc2cc(O)cc(-c3ncc4c(N5CC6CCC(C5)N6)nc(OCC56CCCN5CC(F)C6)nc4c3F)c12 was tested, and the IC50 (second compound 0.0316 µM) was 3.56 nM, the IC50 (second compound 0.1 µM) was < 3.16 nM and the IC50 (second compound 0.316 µM) was < 3.16 nM. For the same compound, the IC50 (second compound 1 µM) was 3.69 nM, the IC50 (second compound 3.16 µM) was 5.18 nM and the IC50 (second compound 10 µM) was < 3.16 nM. The viability, T/C [1] was 52.6%, the viability, T/C [2] was 35.3% and the viability, T/C [3] was 26.1%. For the same compound, the viability, T/C [4] was 26.5%, the viability, T/C [5] was 17.6% and the viability, T/C [6] was 14.2%. It also gave a viability, T/C [7] of 44%, a viability, T/C [8] of 36.1% and a viability, T/C [9] of 27.1%. The viability, T/C [10] was 20.7%, the viability, T/C [11] was 18.8% and the viability, T/C [12] was 15.3%. For the same compound, the viability, T/C [13] was 50%, the viability, T/C [14] was 37.8% and the viability, T/C [15] was 29.6%. For the same compound, the viability, T/C [16] was 24.8%, the viability, T/C [17] was 16.7% and the viability, T/C [18] was 14.5%. For the same compound, the viability, T/C [19] was 53.5%, the viability, T/C [20] was 30% and the viability, T/C [21] was 24.5%. It also gave a viability, T/C [22] of 20.6%, a viability, T/C [23] of 17.6% and a viability, T/C [24] of 15.3%. The viability, T/C [25] was 59.7%, the viability, T/C [26] was 36.2% and the viability, T/C [27] was 26.7%. The viability, T/C [28] was 21.4%, the viability, T/C [29] was 19.3% and the viability, T/C [30] was 12.5%. It also gave a viability, T/C [31] of 17.5%, a viability, T/C [32] of 14.3% and a viability, T/C [33] of 12.5%. The viability, T/C [34] was 9.58%, the viability, T/C [35] was 9.91% and the viability, T/C [36] was 5.99%.
